Read-outs that look alike come from different tables or passages of the source.
Experiments:
[1] = target: T1, baculovirus-expressed ALK (Homo sapiens, UniProt Q9UM73); test: ALK Kinase Assay (ELISA-type, time-resolved fluorescence); type: biochemical; conditions: 1 μM ATP (Km level); read-out: ALK Activity (ALK Kinase Inhibition, IC50)
T1 construct: host or cells: baculovirus expression system
Outline: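 Plates coated with phospholipase C-γ substrate (10 μg/mL in TBS); reaction started with 30 ng/ml ALK and run 15 min at 37° C. Phosphorylated substrate detected with Eu-N1-labeled PT66 antibody. IC50 from sigmoidal variable-slope fit of percent inhibition vs log concentration.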

[2] = target: T2, c-Met (cytoplasmic domain) (Homo sapiens, UniProt P08581); test: c-Met Kinase Assay (same methods as for ALK, with modifications); type: biochemical; conditions: 1 μM ATP (Km level)
T2 construct: 10 ng/mL c-Met (cytoplasmic domain, Invitrogen Corporation #PV3143); purchased Invitrogen Corporation PV3143
T2 sequence (P08581 956-1390 limits assumed): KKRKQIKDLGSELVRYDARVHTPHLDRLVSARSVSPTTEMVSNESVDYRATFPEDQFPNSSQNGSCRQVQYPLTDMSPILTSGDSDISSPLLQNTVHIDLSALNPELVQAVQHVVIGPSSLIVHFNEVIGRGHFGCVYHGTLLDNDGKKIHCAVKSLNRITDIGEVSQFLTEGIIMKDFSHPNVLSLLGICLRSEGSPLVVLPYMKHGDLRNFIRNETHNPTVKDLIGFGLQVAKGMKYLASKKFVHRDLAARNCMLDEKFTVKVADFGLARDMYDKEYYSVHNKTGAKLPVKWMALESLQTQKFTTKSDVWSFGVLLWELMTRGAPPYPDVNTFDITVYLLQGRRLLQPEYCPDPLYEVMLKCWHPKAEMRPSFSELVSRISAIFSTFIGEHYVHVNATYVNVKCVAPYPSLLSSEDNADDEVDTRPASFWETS
Outline: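 Plates were coated with phospholipase C-γ substrate (10 μg/mL) in TBS, and the reaction was started with 10 ng/mL c-Met cytoplasmic domain and run 15 min at 37 °C. Phosphoproduct was detected with Eu-N1-labelled PT66 antibody. IC50 came from a variable-slope sigmoidal fit of percent inhibition vs log concentration.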

[3] = read-out: cMet Activity (c-Met Kinase Inhibition, IC50)

T1 sequence (Q9UM73 19-1620): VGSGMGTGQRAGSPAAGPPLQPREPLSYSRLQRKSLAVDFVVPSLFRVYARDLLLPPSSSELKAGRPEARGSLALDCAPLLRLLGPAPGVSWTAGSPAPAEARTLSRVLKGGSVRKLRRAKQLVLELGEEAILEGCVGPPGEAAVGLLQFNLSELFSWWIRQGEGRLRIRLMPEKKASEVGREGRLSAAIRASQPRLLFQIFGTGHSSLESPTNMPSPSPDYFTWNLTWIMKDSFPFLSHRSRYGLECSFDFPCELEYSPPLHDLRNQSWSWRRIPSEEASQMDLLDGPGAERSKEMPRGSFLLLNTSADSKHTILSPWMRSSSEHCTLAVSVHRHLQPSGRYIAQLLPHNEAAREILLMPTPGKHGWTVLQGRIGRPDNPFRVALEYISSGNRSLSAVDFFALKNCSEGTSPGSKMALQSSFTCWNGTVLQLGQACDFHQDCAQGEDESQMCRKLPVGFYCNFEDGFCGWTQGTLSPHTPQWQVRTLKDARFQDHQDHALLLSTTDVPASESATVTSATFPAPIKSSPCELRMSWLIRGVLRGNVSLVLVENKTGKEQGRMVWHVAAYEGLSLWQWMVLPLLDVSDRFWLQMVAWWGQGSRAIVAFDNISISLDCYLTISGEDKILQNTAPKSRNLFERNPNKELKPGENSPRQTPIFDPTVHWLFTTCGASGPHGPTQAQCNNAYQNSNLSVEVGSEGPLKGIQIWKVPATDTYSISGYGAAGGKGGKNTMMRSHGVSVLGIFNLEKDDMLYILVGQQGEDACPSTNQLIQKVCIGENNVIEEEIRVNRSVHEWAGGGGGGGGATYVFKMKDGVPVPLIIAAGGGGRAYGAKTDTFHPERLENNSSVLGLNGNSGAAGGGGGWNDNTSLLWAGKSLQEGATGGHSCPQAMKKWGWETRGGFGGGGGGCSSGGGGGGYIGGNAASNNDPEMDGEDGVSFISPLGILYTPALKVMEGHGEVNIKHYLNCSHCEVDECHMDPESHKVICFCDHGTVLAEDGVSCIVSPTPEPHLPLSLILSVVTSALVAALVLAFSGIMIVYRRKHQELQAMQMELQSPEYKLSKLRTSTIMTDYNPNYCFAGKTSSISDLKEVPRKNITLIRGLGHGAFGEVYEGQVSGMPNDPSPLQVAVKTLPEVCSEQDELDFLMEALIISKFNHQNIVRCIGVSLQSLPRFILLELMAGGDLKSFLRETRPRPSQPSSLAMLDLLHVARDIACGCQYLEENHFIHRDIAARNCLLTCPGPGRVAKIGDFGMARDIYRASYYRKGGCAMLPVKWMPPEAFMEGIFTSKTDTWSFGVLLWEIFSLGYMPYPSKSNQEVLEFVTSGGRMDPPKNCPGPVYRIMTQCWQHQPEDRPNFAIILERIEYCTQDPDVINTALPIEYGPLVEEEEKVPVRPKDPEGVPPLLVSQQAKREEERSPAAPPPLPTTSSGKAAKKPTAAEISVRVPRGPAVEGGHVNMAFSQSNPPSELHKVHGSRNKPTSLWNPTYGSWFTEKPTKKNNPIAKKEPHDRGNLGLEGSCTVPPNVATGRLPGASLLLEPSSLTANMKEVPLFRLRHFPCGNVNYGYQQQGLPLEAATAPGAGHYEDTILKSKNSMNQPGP

SMILES | IC50 [1] | IC50 [2, 3] | IC50 ([2]; cMet Activity (c-Met Kinase Inhibition, IC50))
COCCN1CCc2ccc(Nc3ncc(Cl)c(Nc4ccc(N5CCOCC5)cc4S(=O)(=O)N(C)C)n3)cc2CC1 [Example 853, 2-{5-Chloro-2-[3-(2-methoxy-ethyl)-2,3,4,5-tetrahydro-1H-benzo[d]azepin-7-ylamino]-pyrimidin-4-ylamino}-N,N-dimethyl-5-morpholin-4-yl-benzenesulfonamide] | < 100 nM | 1000 to 10000 nM | 
COCCN1CCc2cc(Nc3ncc(Cl)c(Nc4ccccc4S(=O)(=O)N4CC[C@H](C)C4)n3)c(OC)cc2CC1 [Example 854, 5-Chloro-N(2)-[8-methoxy-3-(2-methoxy-ethyl)-2,3,4,5-tetrahydro-1H-benzo[d]azepin-7-yl]-N(4)-[2-((S)-3-methyl-pyrrolidine-1-sulfonyl)-phenyl]-pyrimidine-2,4-diamine] | < 100 nM | 100 to 1000 nM | 
COc1cc2c(cc1Nc1ncc(Cl)c(Nc3ccccc3S(=O)(=O)N3CC[C@H](C)C3)n1)CCN(CCO)CC2 [Example 855, 2-(7-{5-Chloro-4-[2-((S)-3-methyl-pyrrolidine-1-sulfonyl)-phenylamino]-pyrimidin-2-ylamino}-8-methoxy-1,2,4,5-tetrahydro-benzo[d]azepin-3-yl)-ethanol] | < 100 nM | 100 to 1000 nM | 
COc1cc2c(cc1Nc1ncc(Cl)c(Nc3ccccc3S(=O)(=O)N3CC[C@H](C)C3)n1)CCN(CC(=O)N(C)C)CC2 [Example 856, 2-(7-{5-Chloro-4-[2-((S)-3-methyl-pyrrolidine-1-sulfonyl)-phenylamino]-pyrimidin-2-ylamino}-8-methoxy-1,2,4,5-tetrahydro-benzo[d]azepin-3-yl)-N,N-dimethyl-acetamide] | < 100 nM | 100 to 1000 nM | 
NC(=O)C1C2C=CC(C2)C1Nc1nc(Nc2cccc3c2OCCCC3)ncc1Cl (stereo not drawn) [Example 861, (2-exo-3-exo)-3-[5-Chloro-2-(2,3,4,5-tetrahydro-benzo[b]oxepin-9-ylamino)-pyrimidin-4-ylamino]-bicyclo[2.2.1]hept-5-ene-2-carboxylic acid amide] | < 100 nM | > 10000 nM | 
COc1cc(N2CCOCC2)ccc1Nc1nc(Nc2cccc3c2OCCCC3)ncc1Cl [Example 862, 5-Chloro-N*4*-(2-methoxy-4-morpholin-4-yl-phenyl)-N*2*-(2,3,4,5-tetrahydrobenzo[b]oxepin-9-yl)pyrimidine-2,4-diamine] | < 100 nM | > 10000 nM | 
CS(=O)(=O)N[C@@H]1CCCC[C@H]1Nc1nc(Nc2cccc3c2OCCCC3)ncc1Cl [Example 863, N-{(1R,2R)-2-[5-Chloro-2-(2,3,4,5-tetrahydro-benzo[b]oxepin-9-ylamino)pyrimidin-4-ylamino]-cyclohexyl}-methanesulfonamide] | < 100 nM | > 10000 nM | 
COc1ccccc1Nc1nc(Nc2cccc3c2OCCCC3)ncc1Cl [Example 864, 5-Chloro-N*4*-(2-methoxy-phenyl)-N*2*-(2,3,4,5-tetrahydrobenzo[b]oxepin-9-yl)-pyrimidine-2,4-diamine] | 1000 to 10000 nM | > 10000 nM | 
COc1cc(N2CCOCC2)ccc1Nc1nc(Nc2ccc3c(c2)CCC(N2CCOCC2)CC3)ncc1Cl (centres unmarked) [Example 865, 5-Chloro-N*4*-(2-methoxy-4-morpholin-4-yl-phenyl)-N*2*-(7-morpholin-4-yl-6,7,8,9-tetrahydro-5H-benzocyclohepten-2-yl)-pyrimidine-2,4-diamine] | < 100 nM | 1000 to 10000 nM | 
CCNC(=O)c1ccccc1Nc1nc(Nc2ccc3c(c2)CCC(N2CCOCC2)CC3)ncc1Cl (centres unmarked) [Example 866, 2-[5-Chloro-2-(7-morpholin-4-yl-6,7,8,9-tetrahydro-5H-benzocyclohepten-2-ylamino)-pyrimidin-4-ylamino]-N-ethyl-benzamide] | < 100 nM | < 100 nM | 
NC(=O)C1C2C=CC(C2)C1Nc1nc(Nc2ccc3c(c2)CCC(N2CCOCC2)CC3)ncc1Cl (centres unmarked) [Example 867, 3-[5-Chloro-2-(7-morpholin-4-yl-6,7,8,9-tetrahydro-5H-benzocyclohepten-2-ylamino)-pyrimidin-4-ylamino]-bicyclo[2.2.1]hept-5-ene-2-carboxylic acid amide] | < 100 nM | 100 to 1000 nM | 
CNC(=O)c1ccccc1Nc1nc(Nc2ccc3c(c2OC)CCC(=O)CC3)ncc1Cl [Example 868, 2-[5-Chloro-2-(1-methoxy-7-oxo-6,7,8,9-tetrahydro-5H-benzocyclohepten-2-ylamino)-pyrimidin-4-ylamino]-N-methyl-benzamide] | < 100 nM | > 10000 nM | 
COc1c(Nc2ncc(Cl)c(N[C@H]3[C@@H](C(N)=O)[C@@H]4C=C[C@H]3C4)n2)ccc2c1CCC(=O)CC2 [Example 869, (1S,2S,3R,4R)-3-[5-Chloro-2-(1-methoxy-7-oxo-6,7,8,9-tetrahydro-5H-benzocyclohepten-2-ylamino)-pyrimidin-4-ylamino]-bicyclo[2.2.1]hept-5-ene-2-carboxylic acid amide] | < 100 nM | > 10000 nM | 
CC1(C)CCCOc2c(Nc3ncc(Cl)c(N[C@@H]4[C@H](C(N)=O)[C@H]5C=C[C@@H]4C5)n3)cccc21 [Example 870, (1R,2R,3S,4S)-3-[5-Chloro-2-(5,5-dimethyl-2,3,4,5-tetrahydro-benzo[b]oxepin-9-ylamino)-pyrimidin-4-ylamino]-bicyclo[2.2.1]hept-5-ene-2-carboxylic acid amide] | 100 to 1000 nM | > 10000 nM | 
CN1C(=O)CCCc2cc(Nc3ncc(Cl)c(Nc4ccccc4C(=O)NCCC#N)n3)ccc21 [Example 871, 2-[5-Chloro-2-(1-methyl-2-oxo-2,3,4,5-tetrahydro-1H-benzo[b]azepin-7-ylamino)-pyrimidin-4-ylamino]-N-(2-cyano-ethyl)-benzamide] | < 100 nM | < 100 nM | 
COc1cc(N2CCN(C)CC2)ccc1Nc1nc(Nc2cccc3c2OCCCC3(C)C)ncc1Cl [Example 872, 5-Chloro-N*2*-(5,5-dimethyl-2,3,4,5-tetrahydro-benzo[b]oxepin-9-yl)-N*4*-[2-methoxy-4-(4-methyl-piperazin-1-yl)-phenyl]-pyrimidine-2,4-diamine] | < 100 nM | > 10000 nM | 
CCNC(=O)c1ccccc1Nc1nc(Nc2cccc3c2OCCCC3(C)C)ncc1Cl [Example 873, 2-[5-Chloro-2-(5,5-dimethyl-2,3,4,5-tetrahydro-benzo[b]oxepin-9-ylamino)-pyrimidin-4-ylamino]-N-ethyl-benzamide] | < 100 nM | > 10000 nM | 
CCNC(=O)c1cccc(F)c1Nc1nc(Nc2cccc3c2OCCCC3(C)C)ncc1Cl [Example 874, 2-[5-Chloro-2-(5,5-dimethyl-2,3,4,5-tetrahydro-benzo[b]oxepin-9-ylamino)-pyrimidin-4-ylamino]-N-ethyl-3-fluoro-benzamide] | 100 to 1000 nM | > 10000 nM | 
CC1(C)CCCOc2c(Nc3ncc(Cl)c(N[C@@H]4CCCC[C@H]4NS(C)(=O)=O)n3)cccc21 [Example 875, N-{(1R,2R)-2-[5-Chloro-2-(5,5-dimethyl-2,3,4,5-tetrahydro-benzo[b]oxepin-9-ylamino)-pyrimidin-4-ylamino]-cyclohexyl}-methanesulfonamide] | < 100 nM | > 10000 nM | 
COc1cc(N2CCOCC2)ccc1Nc1nc(Nc2cccc3c2OCCCC3(C)C)ncc1Cl [Example 876, 5-Chloro-N*2*-(5,5-dimethyl-2,3,4,5-tetrahydro-benzo[b]oxepin-9-yl)-N*4*-(2-methoxy-4-morpholin-4-yl-phenyl)-pyrimidine-2,4-diamine] | 100 to 1000 nM | > 10000 nM | 
CC1(C)CCCOc2c(Nc3ncc(Cl)c(Nc4ccccc4C(=O)NCCC#N)n3)cccc21 [Example 877, 2-[5-Chloro-2-(5,5-dimethyl-2,3,4,5-tetrahydro-benzo[b]oxepin-9-ylamino)-pyrimidin-4-ylamino]-N-(2-cyano-ethyl)-benzamide] | 100 to 1000 nM | > 10000 nM | 
CC(C)S(=O)(=O)c1ccccc1Nc1nc(Nc2cccc3c2OCCCC3(C)C)ncc1Cl [Example 878, 5-Chloro-N*2*-(5,5-dimethyl-2,3,4,5-tetrahydro-benzo[b]oxepin-9-yl)-N*4*-[2-(propane-2-sulfonyl)-phenyl]-pyrimidine-2,4-diamine] | 100 to 1000 nM | > 10000 nM | 
Cn1ccnc1-c1ccccc1Nc1nc(Nc2cccc3c2OCCCC3(C)C)ncc1Cl [Example 879, 5-Chloro-N*2*-(5,5-dimethyl-2,3,4,5-tetrahydro-benzo[b]oxepin-9-yl)-N*4*-[2-(1-methyl-1H-imidazol-2-yl)-phenyl]-pyrimidine-2,4-diamine] | 100 to 1000 nM | > 10000 nM | 
CC1(C)CCCOc2c(Nc3ncc(Cl)c(Nc4ccccc4OCC#N)n3)cccc21 [Example 880, {2-[5-Chloro-2-(5,5-dimethyl-2,3,4,5-tetrahydro-benzo[b]oxepin-9-ylamino)-pyrimidin-4-ylamino]-phenoxy}-acetonitrile] | 1000 to 10000 nM | > 10000 nM | 
COc1c(Nc2ncc(Cl)c(N[C@H]3[C@@H](C(N)=O)[C@@H]4C=C[C@H]3C4)n2)ccc2c1CC[C@H](N1CCOCC1)CC2 [Example 881, (1S,2S,3R,4R)-3-[5-Chloro-2-((R)-1-methoxy-7-morpholin-4-yl-6,7,8,9-tetrahydro-5H-benzocyclohepten-2-ylamino)-pyrimidin-4-ylamino]-bicyclo[2.2.1]hept-5-ene-2-carboxylic acid amide] | < 100 nM |  | > 10000 nM

Source: patent US8148391B2 (Cephalon, Inc., priority 2006, dated 2012)
